Test results published in patent US8871933B2, “Purified pyrroloquinolinyl-pyrrolidine-2,5-dione compositions and methods for preparing and using same” (ArQule, Inc., priority 2009, dated 2014).

Legend:
c-Met = c-Met (Homo sapiens, UniProt P08581); assay: Kinase inhibition, c-Met; format: biochemical; details: read-out: inhibitory constant (Ki)
Description: (−)-trans-3-(5,6-dihydro-4H-pyrrolo[3,2,1-ij]quinolin-1-yl)-4-(1H-indol-3-yl)pyrrolidine-2,5-dione was assessed for its activity to inhibit a large panel (n=230) of human kinases.

MDA-MB-231 cells = assay: Colony formation / surviving fraction assay; format: cell-based; details: Homo sapiens, two days incubation, colonies counted two weeks later, read-out: IC50 (surviving fraction equaled 50)
Description: MDA-MB-231 cells (ATCC #HTB-26), grown in DMEM plus 15% heat inactivated fetal bovine serum plus 10 mM HEPES pH 7.5, were plated in 60 mm^2 plates (2×10^5 cells per plate). After two days candidate compounds in DMSO at various concentrations were diluted in media and added to individual plates such that the final DMSO concentration in the cell culture media was 0.1%. After two days incubation the culture was trypsinized, cells were washed with media, counted using a hemocytometer and 500 cells, including cell bodies, were plated in 100 mm^2 plates in media. Two weeks later the media was removed and the cell colonies were fixed with methanol for 10 minutes, stained with 1% crystal violet for 10 minutes, washed with water and air dried. Cell colonies were visually counted when there were greater then 50 cells present per colony. Plating efficiency was defined as the average number of colonies formed divided by 500. The surviving fraction was defined as the plating efficiency of a candidate compound divided by the plating efficiency of DMSO multiplied by 100. For candidate compound titrations, the IC50 value was determined by fitting the equation y=Ae^Bx to the data points and extrapolating the concentration where surviving fraction equaled 50. […]

[1] = test system: MDA-MB-231 human breast cancer cells; assay: Human breast cancer xenograft; format: in vivo, female athymic nude mice
Description: MDA-MB-231 human breast cancer cells were inoculated subcutaneously into female athymic nude mice (8.0×10^6 cells/mouse) and allowed to form palpable tumors. Once the tumors reached approximately 60 mm^3, the animals were treated orally with (−)-trans-3-(5,6-dihydro-4H-pyrrolo[3,2,1-ij]quinolin-1-yl)-4-(1H-indol-3-yl)pyrrolidine-2,5-dione at 200 mg/kg or vehicle control daily (5 consecutive days, followed by a 2 day dosing holiday). (−)-trans-3-(5,6-dihydro-4H-pyrrolo[3,2,1-ij]quinolin-1-yl)-4-(1H-indol-3-yl)pyrrolidine-2,5-dione was formulated in PEG 400:20% Vitamin E TPGS (60:40). The animals received a total of 20 doses of (−)-trans-3-(5,6-dihydro-4H-pyrrolo[3,2,1-ij]quinolin-1-yl)-4-(1H-indol-3-yl)pyrrolidine-2,5-dione or vehicle control. Tumors were measured throughout treatment and the post-treatment observation period. Each point represents the mean±SEM of ten tumors. (See, FIG. 8)

[2] = test system: MDA-MB-231 breast cancer cells; assay: Cancer cell invasion assay (inserts); format: cell-based; details: Homo sapiens, 24 hours pretreatment, 24 hours invasion, estimated, read-out: IC50, inhibition of invasive phenotype
Description: MDA-MB-231 cells were pretreated with indicated concentrations of (−)-trans-3-(5,6-dihydro-4H-pyrrolo[3,2,1-ij]quinolin-1-yl)-4-(1H-indol-3-yl)pyrrolidine-2,5-dione for 24 hours. 300 μl of each cell suspension (at a concentration 0.5×10^6 cells/mL in serum free medium) was placed in individual inserts and incubated for 24 hours at 37° C. The bottom wells housing the inserts contained […] of 10% FBS containing medium. […] Each insert was then transferred to a clean well containing cell stain solution and incubated for 10 minutes at room temperature. The bottom of the insert was destained by incubating in extraction solution and OD was measured at 560 nm. (−)-trans-3-(5,6-dihydro-4H-pyrrolo[3,2,1-ij]quinolin-1-yl)-4-(1H-indol-3-yl)pyrrolidine-2,5-dione inhibited the migration across interstices in confluent cultures of MDA-MB-231 cancer cells. The data represent the mean of two independent experiments. (See FIG. 7)

Sequence of c-Met (P08581 25-1390): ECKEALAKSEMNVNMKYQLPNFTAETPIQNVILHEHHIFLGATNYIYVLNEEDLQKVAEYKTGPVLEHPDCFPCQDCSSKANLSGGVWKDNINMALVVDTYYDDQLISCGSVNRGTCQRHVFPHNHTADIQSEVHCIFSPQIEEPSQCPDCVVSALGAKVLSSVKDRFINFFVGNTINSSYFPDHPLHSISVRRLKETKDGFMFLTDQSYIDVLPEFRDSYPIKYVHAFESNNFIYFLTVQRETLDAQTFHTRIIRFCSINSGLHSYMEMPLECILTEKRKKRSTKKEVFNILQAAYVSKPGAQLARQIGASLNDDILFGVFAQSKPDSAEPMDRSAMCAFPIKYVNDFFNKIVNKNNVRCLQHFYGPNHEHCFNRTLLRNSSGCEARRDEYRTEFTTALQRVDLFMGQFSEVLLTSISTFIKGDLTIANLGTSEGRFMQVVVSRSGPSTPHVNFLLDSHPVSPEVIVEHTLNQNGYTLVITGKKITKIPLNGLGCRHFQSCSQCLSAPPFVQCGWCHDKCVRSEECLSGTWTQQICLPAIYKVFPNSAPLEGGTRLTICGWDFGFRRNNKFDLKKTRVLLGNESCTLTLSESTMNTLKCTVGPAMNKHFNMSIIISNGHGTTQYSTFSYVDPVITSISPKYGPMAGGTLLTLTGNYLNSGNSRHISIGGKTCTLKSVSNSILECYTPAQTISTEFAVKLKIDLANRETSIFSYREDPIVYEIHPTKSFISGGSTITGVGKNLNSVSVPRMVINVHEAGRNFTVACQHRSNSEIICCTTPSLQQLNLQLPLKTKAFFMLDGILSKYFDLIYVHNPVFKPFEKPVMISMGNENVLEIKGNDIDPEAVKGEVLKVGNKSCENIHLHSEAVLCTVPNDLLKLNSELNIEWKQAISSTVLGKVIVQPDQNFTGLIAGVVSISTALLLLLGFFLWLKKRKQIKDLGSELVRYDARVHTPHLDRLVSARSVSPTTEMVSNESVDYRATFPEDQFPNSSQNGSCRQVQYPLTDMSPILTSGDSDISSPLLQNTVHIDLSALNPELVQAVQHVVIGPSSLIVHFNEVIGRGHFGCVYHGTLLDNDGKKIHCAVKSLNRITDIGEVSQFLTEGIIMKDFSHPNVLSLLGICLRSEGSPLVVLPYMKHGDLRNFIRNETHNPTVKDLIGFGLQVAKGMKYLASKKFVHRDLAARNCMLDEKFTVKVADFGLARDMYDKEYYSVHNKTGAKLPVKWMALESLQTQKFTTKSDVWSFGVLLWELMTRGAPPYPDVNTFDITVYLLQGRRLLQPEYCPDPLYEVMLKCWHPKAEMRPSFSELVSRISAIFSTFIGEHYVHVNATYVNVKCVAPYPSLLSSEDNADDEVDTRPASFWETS

Ki (c-Met): ~360 nM
IC50 [2]: ~500 nM
Compound: O=C1NC(=O)[C@@H](c2cn3c4c(cccc24)CCC3)[C@@H]1c1c[nH]c2ccccc12 (single isomer, unassigned) [(−)-trans-3-(5,6-dihydro-4H-pyrrolo[3,2,1-ij]quinolin-1-yl)-4-(1H-indol-3-yl)pyrrolidine-2,5-dione]
IC50 (MDA-MB-231 cells): 620 nM
Tumor growth inhibition ([1]; 200 mg/kg orally, daily 5 days on / 2 days off, 20 doses, p=0.009): 79%
change in body weight ([1]; oral administration at 200 mg/kg): no significant change in body weight
